From the NIST ThermoML archive (doi:10.1021/je0502804)
± gives the expanded uncertainty stated by the source.

Settings: Crystal; visual observation

Structure (SMILES) | Normal melting temperature [°C]
Clc1cc(Cl)c(Cl)nc1Cl [2,3,5,6-tetrachloropyridine] | 90.00 ± 0.5
Clc1nc(Cl)c(Cl)c(Cl)c1Cl [pentachloropyridine] | 124.00 ± 0.5
